Values belong to the molecule of their own block, whether it stands above or below them. Activity calls are given as the source filed them. No cut-off for these calls is given here.
Columns and labels:
Trypanosoma cruzi [1] = assay: Antimicrobial activity against Trypanosoma cruzi infected in rat L6E9 myoblasts assessed as inhibition of [3H]uracil incorporation by giemsa staining; details: L6E9, 3 h
Trypanosoma cruzi [2] = assay: Antimicrobial activity against Trypanosoma cruzi Y infected in L6E9 myoblasts assessed as inhibition of [3H]uracil incorporation at 25 uM after 3 hrs postinfection by scintillation counter; type: functional; design: scale not given: the % may be the effect or the level left
Trypanosoma cruzi [3] = assay: Antimicrobial activity against Trypanosoma cruzi Y infected in L6E9 myoblasts assessed as inhibition of [3H]uracil incorporation at 1 uM after 3 hrs postinfection by scintillation counter; type: functional; design: scale not given: the % may be the effect or the level left
[4] = molecular target: T1, Cyclic nucleotide specific phosphodiesterase (Trypanosoma cruzi, UniProt Q53I59); assay: Inhibition of Trypanosoma cruzi Y PDEC after 30 mins
T1 sequence (Q53I59 whole entry): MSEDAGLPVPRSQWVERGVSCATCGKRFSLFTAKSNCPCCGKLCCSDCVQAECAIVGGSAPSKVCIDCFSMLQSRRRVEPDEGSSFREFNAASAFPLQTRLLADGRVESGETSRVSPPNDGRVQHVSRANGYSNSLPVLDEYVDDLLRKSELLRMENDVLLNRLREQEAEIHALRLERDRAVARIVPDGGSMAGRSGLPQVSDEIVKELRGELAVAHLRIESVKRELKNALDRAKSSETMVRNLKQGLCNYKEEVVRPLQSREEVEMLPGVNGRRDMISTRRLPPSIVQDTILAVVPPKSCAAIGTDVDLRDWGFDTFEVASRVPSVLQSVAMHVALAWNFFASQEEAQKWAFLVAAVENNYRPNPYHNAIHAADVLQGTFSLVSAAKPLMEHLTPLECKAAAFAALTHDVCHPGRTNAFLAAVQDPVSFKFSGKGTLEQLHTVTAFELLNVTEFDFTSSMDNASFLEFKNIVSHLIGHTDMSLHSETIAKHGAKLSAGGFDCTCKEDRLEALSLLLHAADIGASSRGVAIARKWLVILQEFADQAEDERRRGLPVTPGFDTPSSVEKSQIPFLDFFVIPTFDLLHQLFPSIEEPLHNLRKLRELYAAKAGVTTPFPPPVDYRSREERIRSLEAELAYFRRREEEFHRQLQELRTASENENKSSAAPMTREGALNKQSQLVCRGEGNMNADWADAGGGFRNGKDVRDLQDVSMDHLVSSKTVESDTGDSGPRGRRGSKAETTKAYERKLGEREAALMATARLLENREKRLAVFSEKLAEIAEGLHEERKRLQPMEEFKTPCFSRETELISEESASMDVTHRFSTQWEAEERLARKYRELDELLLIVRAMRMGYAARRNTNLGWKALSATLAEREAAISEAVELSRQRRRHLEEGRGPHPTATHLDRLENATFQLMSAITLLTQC

[5] = molecular target: T2, Cyclic nucleotide specific phosphodiesterase (Trypanosoma cruzi) (UniProt Q53I59); assay: Inhibition of Trypanosoma cruzi Y PDEC assessed as cAMP accumulation at 43 uM after 1 to 5 mins by luminescence spectrophotometry
T2 sequence (whole entry): T1 sequence (Q53I59 whole entry)

[6] = molecular target: T2, Cyclic nucleotide specific phosphodiesterase (Trypanosoma cruzi); assay: Inhibition of Trypanosoma cruzi Y PDEC assessed as cAMP accumulation at 90 uM after 1 to 5 mins by luminescence spectrophotometry
[7] = molecular target: T2, Cyclic nucleotide specific phosphodiesterase (Trypanosoma cruzi); assay: Inhibition of Trypanosoma cruzi Y PDEC assessed as cAMP accumulation at 26 uM after 1 to 5 mins by luminescence spectrophotometry
[8] = Cytotoxicity against rat L6E9 myoblasts at 1 to 25 uM
Phosphodiesterase 4 = Phosphodiesterase 4 (Homo sapiens, UniProt P27815+Q08499+Q07343+Q08493); assay: Inhibition of human PDE4 after 30 mins; type: protein assay
[9] = molecular target: T2, Cyclic nucleotide specific phosphodiesterase (Trypanosoma cruzi); assay: Inhibition of Trypanosoma cruzi Y PDEC assessed as volume recovery preincubated with 8.7 uM compound measured after 10 mins by light scattering
Trypanosoma cruzi [10] = assay: Antimicrobial activity against Trypanosoma cruzi Y infected in rat L6E9 myoblasts assessed as inhibition of [5,6-3H]uracil incorporation after 3 days postinfection by scintillation counter; type: functional, organism-based
[11] = molecular target: T2, Cyclic nucleotide specific phosphodiesterase (Trypanosoma cruzi); assay: Inhibition of Trypanosoma cruzi Y PDEC assessed as decrease in osmolarity preincubated with 8.7 uM compound measured after 10 mins by light scattering
[12] = molecular target: T2, Cyclic nucleotide specific phosphodiesterase (Trypanosoma cruzi); assay: Inhibition of Trypanosoma cruzi Y PDEC assessed as cAMP accumulation at 4.5 to 45 uM after 1 to 5 mins by luminescence spectrophotometry

IC50 (Trypanosoma cruzi [1]): 3.7 µM
SMILES: O=C(Cn1ccnc1[N+](=O)[O-])NCc1ccccc1 [BENZNIDAZOLE]

IC50 [4]: 4.1 µM
SMILES: O=C1c2ccccc2C(=O)N1Cc1csc(-c2cccs2)n1
Activity (Trypanosoma cruzi [2]): 98%
Activity (Trypanosoma cruzi [3]): 51%

IC50 (Trypanosoma cruzi [1]): 2.8 µM
SMILES: CC1CS(=O)(=O)CCN1/N=C/c1ccc([N+](=O)[O-])o1 (stereo not given) [NIFURTIMOX]

inhibition [5]: Active
inhibition [6]: Active
inhibition [7]: Active
IC50 (Phosphodiesterase 4): 29 µM
inhibition [9]: inactive
inhibition [11]: inactive
IC50 [4]: 6.5 µM
inhibition [12]: Active
SMILES: CCCC(=O)c1ccc(OC2CCN(C(=O)OC(C)(C)C)CC2)c(OC)c1
Activity [8]: Non-toxic
IC50 (Trypanosoma cruzi [10]): 3.3 µM
